Results reported in ChEMBL document CHEMBL4052790, “Identification of a Novel TRPM8 Agonist from Nutmeg: A Promising Cooling Compound” (ACS Med Chem Lett, 2017).
Activity calls are given as the source filed them. The calls are words filed in the database; no cut-off is given here.

How the values were obtained:
[1] = molecular target: T1, Transient receptor potential cation channel subfamily M member 8 (Homo sapiens, UniProt Q7Z2W7); test: Agonist activity at full length recombinant human TRPM8 expressed in HEK293 cells assessed as increase in intracellular Ca2+ level pre-incubated for 5 mins by Fluo4-AM dye-based fluorescence assay; type: cell-based
Target sequence in this assay (Q7Z2W7 whole entry): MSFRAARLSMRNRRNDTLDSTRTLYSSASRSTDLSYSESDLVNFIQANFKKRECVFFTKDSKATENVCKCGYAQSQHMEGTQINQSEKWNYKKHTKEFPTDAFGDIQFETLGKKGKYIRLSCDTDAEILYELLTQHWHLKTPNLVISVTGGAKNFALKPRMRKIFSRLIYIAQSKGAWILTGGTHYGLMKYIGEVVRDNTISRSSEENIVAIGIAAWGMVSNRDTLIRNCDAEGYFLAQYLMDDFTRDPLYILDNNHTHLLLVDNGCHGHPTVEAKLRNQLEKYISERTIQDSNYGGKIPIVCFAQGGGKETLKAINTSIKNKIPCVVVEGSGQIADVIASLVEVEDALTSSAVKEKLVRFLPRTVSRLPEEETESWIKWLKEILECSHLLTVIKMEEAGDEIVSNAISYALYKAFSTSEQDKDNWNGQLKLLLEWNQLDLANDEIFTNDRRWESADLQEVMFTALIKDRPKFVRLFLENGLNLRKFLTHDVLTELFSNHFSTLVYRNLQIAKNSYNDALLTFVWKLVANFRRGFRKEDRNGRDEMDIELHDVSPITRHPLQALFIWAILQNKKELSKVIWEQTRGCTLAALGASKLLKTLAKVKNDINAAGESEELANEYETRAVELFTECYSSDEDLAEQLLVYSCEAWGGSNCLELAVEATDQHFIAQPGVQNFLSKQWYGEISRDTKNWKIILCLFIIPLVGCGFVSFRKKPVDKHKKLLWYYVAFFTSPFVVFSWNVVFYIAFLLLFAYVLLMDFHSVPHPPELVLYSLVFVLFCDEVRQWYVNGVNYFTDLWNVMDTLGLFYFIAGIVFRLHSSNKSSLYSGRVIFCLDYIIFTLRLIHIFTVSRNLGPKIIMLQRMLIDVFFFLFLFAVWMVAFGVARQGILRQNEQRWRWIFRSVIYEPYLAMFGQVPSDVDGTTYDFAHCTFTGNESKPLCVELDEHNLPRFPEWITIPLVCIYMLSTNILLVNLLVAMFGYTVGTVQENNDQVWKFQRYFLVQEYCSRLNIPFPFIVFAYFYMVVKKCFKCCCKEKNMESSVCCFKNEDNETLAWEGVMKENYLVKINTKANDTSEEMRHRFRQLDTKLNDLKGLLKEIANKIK

[2] = tested on: Transient receptor potential cation channel subfamily M member 8 (Homo sapiens), Q7Z2W7 [Y745H]; test: Agonist activity at full length recombinant human TRPM8 Y745H mutant expressed in HEK293 cells at 0.3 to 3 uM by Fluo4-AM dye-based fluorescence assay; type: cell-based
[3] = molecular target: T1, Transient receptor potential cation channel subfamily M member 8; test: Agonist activity at full length recombinant human TRPM8 expressed in HEK293 cells assessed as additive potentiation of 1 and 3 uM l-menthol-stimulated intracellular Ca2+ level at 0.03 uM by Fluo4-AM dye-based fluorescence assay; type: cell-based
Target sequence in this assay (Q7Z2W7 whole entry, looked up): as the sequence (Q7Z2W7 whole entry) above

[4] = molecular target: Transient receptor potential cation channel subfamily V member 4 (Homo sapiens) (UniProt Q9HBA0); test: Agonist activity at recombinant human TRPV4 expressed in HEK293 cells assessed as increase in intracellular Ca2+ level pre-incubated for 5 mins by Fluo4-AM dye-based fluorescence assay; type: cell-based
[5] = molecular target: Transient receptor potential cation channel subfamily A member 1 (Homo sapiens, UniProt O75762); test: Agonist activity at recombinant human TRPA1 expressed in HEK293 cells assessed as increase in intracellular Ca2+ level pre-incubated for 5 mins by Fluo4-AM dye-based fluorescence assay; type: cell-based
[6] = molecular target: Transient receptor potential cation channel subfamily V member 1 (Homo sapiens) (UniProt Q8NER1); test: Agonist activity at recombinant human TRPV1 expressed in HEK293 cells assessed as increase in intracellular Ca2+ level pre-incubated for 5 mins by Fluo4-AM dye-based fluorescence assay; type: cell-based
[7] = molecular target: T2, Transient receptor potential cation channel subfamily V member 3 (Homo sapiens) (UniProt Q8NET8); test: Agonist activity at recombinant human TRPV3 expressed in HEK293 cells assessed as increase in intracellular Ca2+ level pre-incubated for 5 mins by Fluo4-AM dye-based fluorescence assay; type: cell-based
T2 sequence (whole entry): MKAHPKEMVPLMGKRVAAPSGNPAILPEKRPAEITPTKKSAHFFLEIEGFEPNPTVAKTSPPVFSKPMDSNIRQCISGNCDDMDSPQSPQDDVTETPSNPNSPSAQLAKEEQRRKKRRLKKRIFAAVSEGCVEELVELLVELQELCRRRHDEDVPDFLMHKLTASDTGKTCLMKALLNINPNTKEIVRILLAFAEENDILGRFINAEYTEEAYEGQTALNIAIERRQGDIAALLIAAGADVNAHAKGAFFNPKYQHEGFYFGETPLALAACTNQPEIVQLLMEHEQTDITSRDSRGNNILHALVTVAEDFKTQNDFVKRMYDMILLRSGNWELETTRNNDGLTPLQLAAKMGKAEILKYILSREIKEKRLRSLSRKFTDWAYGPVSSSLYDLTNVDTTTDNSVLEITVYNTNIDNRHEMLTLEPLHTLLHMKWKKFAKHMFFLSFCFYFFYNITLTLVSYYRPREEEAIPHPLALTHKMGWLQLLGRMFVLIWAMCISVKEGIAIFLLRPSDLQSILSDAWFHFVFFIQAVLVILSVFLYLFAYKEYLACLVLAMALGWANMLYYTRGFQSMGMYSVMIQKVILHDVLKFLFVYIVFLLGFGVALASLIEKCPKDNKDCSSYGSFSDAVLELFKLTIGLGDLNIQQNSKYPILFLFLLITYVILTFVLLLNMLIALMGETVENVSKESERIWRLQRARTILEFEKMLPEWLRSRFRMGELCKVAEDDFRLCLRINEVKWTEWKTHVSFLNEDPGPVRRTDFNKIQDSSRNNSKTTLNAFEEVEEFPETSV

Homo sapiens [8] = species: Homo sapiens; test: Induction of cooling effect in human at 0.02% measured after few mins after washing by simple mouth washing method; type: functional
Homo sapiens [9] = species: Homo sapiens; test: Induction of cooling effect in human at 0.02% measured immediately after washing by simple mouth washing method; type: functional

Chain of Transient receptor potential cation channel subfamily A member 1 (O75762 whole entry): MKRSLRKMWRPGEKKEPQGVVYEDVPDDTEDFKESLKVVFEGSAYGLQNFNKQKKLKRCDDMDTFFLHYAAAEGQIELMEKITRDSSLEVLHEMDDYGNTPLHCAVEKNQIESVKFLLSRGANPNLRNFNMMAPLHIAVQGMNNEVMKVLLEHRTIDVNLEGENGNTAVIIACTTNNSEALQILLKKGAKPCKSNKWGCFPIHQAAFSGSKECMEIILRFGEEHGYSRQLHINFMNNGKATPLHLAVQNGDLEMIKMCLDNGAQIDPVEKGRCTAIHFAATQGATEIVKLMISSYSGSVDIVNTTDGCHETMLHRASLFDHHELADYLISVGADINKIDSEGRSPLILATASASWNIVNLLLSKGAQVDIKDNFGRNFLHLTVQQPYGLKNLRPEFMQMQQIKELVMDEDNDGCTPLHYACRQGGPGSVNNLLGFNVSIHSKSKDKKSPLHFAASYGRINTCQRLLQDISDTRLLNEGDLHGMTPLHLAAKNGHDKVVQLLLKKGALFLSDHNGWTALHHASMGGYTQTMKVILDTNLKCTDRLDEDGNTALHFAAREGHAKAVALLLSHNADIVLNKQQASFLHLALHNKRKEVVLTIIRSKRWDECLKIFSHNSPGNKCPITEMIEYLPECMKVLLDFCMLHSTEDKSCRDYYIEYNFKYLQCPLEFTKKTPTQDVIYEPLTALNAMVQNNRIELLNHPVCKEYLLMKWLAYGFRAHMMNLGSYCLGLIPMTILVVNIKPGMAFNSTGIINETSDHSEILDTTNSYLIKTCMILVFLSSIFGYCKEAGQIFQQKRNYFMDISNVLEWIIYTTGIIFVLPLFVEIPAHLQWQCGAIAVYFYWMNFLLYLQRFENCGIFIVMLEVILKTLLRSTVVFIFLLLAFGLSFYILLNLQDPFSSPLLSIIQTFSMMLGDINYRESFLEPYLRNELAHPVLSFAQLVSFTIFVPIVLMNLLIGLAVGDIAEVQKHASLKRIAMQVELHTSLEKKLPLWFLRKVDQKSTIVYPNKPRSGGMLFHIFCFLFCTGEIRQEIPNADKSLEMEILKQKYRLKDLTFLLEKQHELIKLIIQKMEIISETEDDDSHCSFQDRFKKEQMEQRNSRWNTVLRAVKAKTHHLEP
Chain of Transient receptor potential cation channel subfamily V member 4 (Homo sapiens) (Q9HBA0 whole entry): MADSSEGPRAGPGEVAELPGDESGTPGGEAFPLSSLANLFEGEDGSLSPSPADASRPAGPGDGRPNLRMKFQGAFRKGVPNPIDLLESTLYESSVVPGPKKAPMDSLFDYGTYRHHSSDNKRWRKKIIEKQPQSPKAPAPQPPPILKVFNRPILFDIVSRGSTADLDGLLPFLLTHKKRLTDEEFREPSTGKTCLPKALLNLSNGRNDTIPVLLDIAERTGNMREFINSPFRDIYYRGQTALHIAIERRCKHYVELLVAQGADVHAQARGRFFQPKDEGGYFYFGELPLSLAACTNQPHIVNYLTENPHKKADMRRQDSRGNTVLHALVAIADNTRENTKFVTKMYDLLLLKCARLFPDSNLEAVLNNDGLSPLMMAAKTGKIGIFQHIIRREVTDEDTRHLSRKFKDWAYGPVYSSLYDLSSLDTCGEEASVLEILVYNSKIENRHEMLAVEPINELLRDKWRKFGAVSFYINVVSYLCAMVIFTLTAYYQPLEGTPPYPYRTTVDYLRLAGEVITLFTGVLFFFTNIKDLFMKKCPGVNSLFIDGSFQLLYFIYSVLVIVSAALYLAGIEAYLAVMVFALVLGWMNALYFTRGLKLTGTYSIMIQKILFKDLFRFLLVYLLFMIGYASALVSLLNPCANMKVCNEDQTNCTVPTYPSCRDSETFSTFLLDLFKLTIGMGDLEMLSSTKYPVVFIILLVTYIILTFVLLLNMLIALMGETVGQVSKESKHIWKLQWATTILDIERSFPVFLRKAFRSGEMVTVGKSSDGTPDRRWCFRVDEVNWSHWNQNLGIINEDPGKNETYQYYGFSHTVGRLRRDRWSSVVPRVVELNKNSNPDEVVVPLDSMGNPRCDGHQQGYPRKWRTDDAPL
Chain of Transient receptor potential cation channel subfamily V member 1 (Homo sapiens) (Q8NER1 whole entry): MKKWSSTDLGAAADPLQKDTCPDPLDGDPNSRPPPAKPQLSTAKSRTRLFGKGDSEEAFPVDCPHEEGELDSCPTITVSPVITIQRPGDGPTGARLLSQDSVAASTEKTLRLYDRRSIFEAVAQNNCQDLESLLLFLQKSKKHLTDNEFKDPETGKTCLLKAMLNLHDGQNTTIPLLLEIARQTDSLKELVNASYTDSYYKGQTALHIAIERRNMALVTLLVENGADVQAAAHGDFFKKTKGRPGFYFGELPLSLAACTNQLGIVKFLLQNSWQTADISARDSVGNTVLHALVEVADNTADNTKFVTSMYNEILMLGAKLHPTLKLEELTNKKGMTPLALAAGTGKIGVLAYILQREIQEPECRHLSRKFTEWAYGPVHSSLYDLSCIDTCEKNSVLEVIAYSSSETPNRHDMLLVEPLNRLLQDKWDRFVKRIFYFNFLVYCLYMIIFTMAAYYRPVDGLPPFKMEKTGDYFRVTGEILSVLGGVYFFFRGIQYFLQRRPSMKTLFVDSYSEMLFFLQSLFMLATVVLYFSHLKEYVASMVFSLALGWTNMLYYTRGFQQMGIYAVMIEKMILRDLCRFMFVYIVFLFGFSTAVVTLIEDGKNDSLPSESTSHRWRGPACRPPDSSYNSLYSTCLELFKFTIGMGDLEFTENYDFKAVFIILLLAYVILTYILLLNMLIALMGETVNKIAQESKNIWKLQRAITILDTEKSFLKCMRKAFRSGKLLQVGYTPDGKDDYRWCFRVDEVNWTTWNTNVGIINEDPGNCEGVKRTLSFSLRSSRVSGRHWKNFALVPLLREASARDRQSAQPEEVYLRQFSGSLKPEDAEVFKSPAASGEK
Chain of Transient receptor potential cation channel subfamily M member 8 (Homo sapiens), Q7Z2W7 [Y745H] (Q7Z2W7 whole entry Y745H): as the sequence (Q7Z2W7 whole entry) above, with Y745H counted along it

| SMILES | EC50 [1] [nM] | also measured |
| --- | --- | --- |
| C=CCc1cc(OC)c(OC(C)C(OCC)c2ccc(O)c(OC)c2)c(OC)c1 (mixture of isomers) | 332 | Activity [2]: Active; Activity [3]: Active; Activity [4]: inactive; EC50 [5]: 19.1 µM; Activity [6]: inactive; Activity [7]: inactive; Activity (Homo sapiens [8]): Active |
| C=CCc1cc(OC)c(O[C@H](C)[C@@H](OCC)c2ccc(O)c(OC)c2)c(OC)c1 | 1150 | – |
| C=CCc1cc(OC)c(OC(C)C(OC)c2ccc(O)c(OC)c2)c(OC)c1 (configuration not stated) | 3450 | – |
| CC(C)[C@@H]1CC[C@@H](C)C[C@H]1O [LEVOMENTHOL] | – | Activity (Homo sapiens [9]): Active; EC50 [5]: 96 µM |
| C=CCc1cc(OC)c(OC(C)C(O)c2ccc(O)c(OC)c2)c(OC)c1 (racemic) | > 10000 | – |
| C=CCc1cc(OC)c(O[C@H](C)[C@@H](O)c2ccc(OC)c(OC)c2)c(OC)c1 | > 10000 | – |
| C=CCc1cc(OC)c(O[C@H](C)[C@@H](OC(C)=O)c2ccc(OC)c(OC)c2)c(OC)c1 | > 10000 | – |
| C=CCc1cc(OC)c(O[C@H](C)[C@H](OCC)c2ccc(O)c(OC)c2)c(OC)c1 | 583 | – |
| C=CCc1cc(OC)c(O[C@H](C)[C@@H](OC(C)=O)c2ccc(O)c(OC)c2)c(OC)c1 | > 10000 | – |
| C=CCc1cc(OC)c(OC(C)C(OCCCCCC)c2ccc(O)c(OC)c2)c(OC)c1 (configuration not stated) | 329 | – |
| C=CCc1cc(OC)c(O[C@@H](C)[C@H](OCC)c2ccc(O)c(OC)c2)c(OC)c1 | 1130 | – |

Second part, led by results:

| EC50 [1] [nM] | SMILES | also measured |
| --- | --- | --- |
| 54 | C=CCc1cc(OC)c(OC(C)C(OC2CCCCC2)c2ccc(O)c(OC)c2)c(OC)c1 (configuration not stated) | – |
| 82 | C=CCc1cc(OC)c(OC(C)C(OC(C)C)c2ccc(O)c(OC)c2)c(OC)c1 (configuration not stated) | – |
| 153 | C=CCc1cc(OC)c(OC(C)C(OCCOCCCC)c2ccc(O)c(OC)c2)c(OC)c1 (configuration not stated) | – |
| 86 | C=CCc1cc(OC)c(OC(C)C(OCCCCCCCC)c2ccc(O)c(OC)c2)c(OC)c1 (configuration not stated) | – |
| 11 | C=CCc1cc(OC)c(OC(C)C(O[C@H]2C[C@@H](C)CC[C@@H]2C(C)C)c2ccc(O)c(OC)c2)c(OC)c1 (some centres not stated) | – |
| 66 | C=CCc1cc(OC)c(OC(C)C(OCCCCCCCCCC)c2ccc(O)c(OC)c2)c(OC)c1 (configuration not stated) | – |
| 28 | C=CCc1cc(OC)c(OC(C)C(O[C@@H]2C[C@H](C)CC[C@H]2C(C)C)c2ccc(O)c(OC)c2)c(OC)c1 (some centres not stated) | – |
| 138 | C=CCc1cc(OC)c(OC(C)C(OCC(C)C)c2ccc(O)c(OC)c2)c(OC)c1 (configuration not stated) | – |
